Source: article PMC8399847, “Hybrid Quinolinyl Phosphonates as Heterocyclic Carboxylate Isosteres: Synthesis and Biological Evaluation against Topoisomerase 1B (TOP1B)” (Pharmaceuticals, 2021)
pIC50: −log10 of the molar value.

Columns and labels:
Type in all cases: cell-based
[1] = CCK-8 cytotoxicity assay, MRC-5 non-cancerous cells; details: human, MRC-5 non-malignant lung fibroblast cells, MRC-5 non-malignant lung fibroblasts
Description: (§1) The cytotoxicity of the newly synthesized quinolinylphosphonates 7 was evaluated in vitro by testing their antiproliferative activities against several human cancer cell lines: A549 (human lung adenocarcinoma cells), SKOV3 (human ovarian carcinoma), and HEK293 (human embryonic kidney). In order to analyze the selective cytotoxicity facing exclusively cancerous cell lines, cytotoxicity against non-cancerous cell lines (MRC-5, lung fibroblast cells) was also evaluated. Cell counting kit (CCK-8) assay was employed to assess growth inhibition and, cell proliferation inhibitory activities of compounds that are listed in Table 1 as IC50 values. […] According to the data presented in Table 1, in general, all these phosphorated derivatives present higher selective cytotoxicity in the A549 cell line than in the other two cell lines, SKOV3 and HEK293, although slight differences are observed compared to human ovarian carcinoma (SKOV3).
(§2) Cells were cultured according to the supplier’s instructions, A549 (ATCC® CCL-185), SKOV3 (ATCC® HTB-77), HEK293 (CLS GmbH), MRC-5 (ATCC® CCL-171™). Cells were seeded in 96-well plates at a density of 2–2.5 × 10^3 cells per well and incubated overnight in 0.1 mL of media supplied with 10% Fetal Bovine Serum (Lonza, Basel, Switzerland) in a 5% CO2 incubator at 37 °C. On day 2, drugs (concentration between 0.5–50 μM) were added and samples were incubated for 48 h. After treatment, 10 μL of cell counting kit-8 was added to each well for an additional 2 h incubation at 37 °C. The absorbance of each well was determined by an Automatic Elisa Reader System at 450 nm wavelength. CPT was purchased from Sigma-Aldrich and used as a positive control.

[2] = system: SKOV3 (human ovarian carcinoma); assay: CCK-8 cytotoxicity assay, SKOV3; details: SK-OV-3, SKOV3, 48 h, CCK-8, 50% growth inhibition, read-out: Cytotoxicity IC50 Ovarian SKOV3
Description: as §1, §2

[3] = system: A549 (human lung adenocarcinoma cells); assay: CCK-8 cytotoxicity assay, A549; details: A549, 48 h, CCK-8, 50% growth inhibition, read-out: Cytotoxicity IC50 Lung A549
Description: as §1, §2

`CC[C@@]1(O)C(=O)OCc2c1cc1n(c2=O)Cc2cc3ccccc3nc2-1` [CPT, Camptothecin, reference compound] showed an IC50 at 48 h [1] of 0.017 nM, a pIC50 [2] of 8.26 and a pIC50 [3] of 9.00.
